Data: patent US20220117890A1, “CANNABINOID EMULSIONS” (CORN PRODUCTS DEVELOPMENT, INC., priority 2020, published 2022)

Legend:
[1] = Plasma pharmacokinetics of CBD after single IV or oral administration; type: in vivo, male Sprague-Dawley rats; settings: male, Sprague-Dawley, IV 2 mg/kg, rat
Text: Plasma pharmacokinetics following single intravenous cannabidiol (CBD solid) or oral administration (4 emulsions+1 non-emulsified oil) was investigated in male Sprague-Dawley rats. Rats were used for this study because they are an accepted model for characterization of pharmacokinetics of formulations being developed for humans. Twelve (12) single-catheterized rats (275-300 g, jugular vein catheter) were obtained from Envigo and divided into 6 groups of 2 animals each. Rats were acclimated for 5 days; the temperature was controlled from 68-79° F., the humidity was controlled from 20% to 70% and the light source was fluorescent lamps with a light/dark cycle of 12/12 hours on/off. No concurrent medication was administered during the study, and all rats had access (ad-libitum) to Tekland Rodent Chow 2018 (Envigo) and tap water throughout the live phase. All animals were randomly placed. Post acclimation, all animals received a single IV (tail vein injection) or oral treatment of one of the nanoemulsions, a non-emulsified oil, or a positive control based on Table 7. Group 1 animals received a single IV injection while Groups 2-6 received a single oral administration. The non-emulsified oil is CBD isolate dissolved in MCT oil. WFI=sterile water for injection. Dosing and dose volume are in […] (body weight) and mL/kg (body weight) respectively.
The CBD concentration in blood plasma samples obtained at various collection times (15, 30, 60, 120, 180, 240, 480 minutes and 24 hr) was determined.
The following pharmacokinetic parameters were determined: Bioavailability absolute (Fabs), Bioavailability relative to non-emulsified (Frel), the time at maximum concentration, the maximum concentration, and half-life (T1/2).

[2] = as above; type: in vivo, male Sprague-Dawley rats; settings: male, Sprague-Dawley, IV 2 mg/kg, rat, read-out: Concentration (CBD in blood plasma)

## C=C(C)[C@@H]1CCC(C)=C[C@H]1c1c(O)cc(CCCCC)cc1O [CBD solid, cannabidiol]
[1]
  AUC(0-inf): 2.01 µg·h/mL
  AUC(0-t): 1.98 µg·h/mL
[1]; read-out: Cmax (maximum concentration)
  Cmax: 1.56 µg/mL
[1]; read-out: Tmax (time at maximum concentration)
  Tmax: 15 min
[1]; time 30 min, read-out: Concentration (CBD in blood plasma)
  concentration at 30 min: 0.481 µg/mL
[1]; time 60 min, read-out: Concentration (CBD in blood plasma)
  concentration at 60 min: 0.341 µg/mL
[1]; time 120 min, read-out: Concentration (CBD in blood plasma)
  concentration at 120 min: 0.178 µg/mL
[1]; time 180 min, read-out: Concentration (CBD in blood plasma)
  concentration at 180 min: 0.0892 µg/mL
[1]; time 240 min, read-out: Concentration (CBD in blood plasma)
  concentration at 240 min: 0.0442 µg/mL
[1]; time 480 min, read-out: Concentration (CBD in blood plasma)
  concentration at 480 min: 0.0106 µg/mL
[1]; time 24 hr, read-out: Concentration (CBD in blood plasma)
  concentration at 24 hr: 0.0052 µg/mL
[2]
  concentration at 5 min: 1.56 µg/mL
